From the supplement of paper PMC10307832

What was measured:
Assay in all cases: relative viability (nuclei count vs DMSO), 5 days (fraction); higher = more cells survive
[1] = compound: C1=CC=C(C(=C1)C2=CC=C(C=C2)C3=CSC4=C3C(=C(C(=O)N4)C#N)O)O + CC(=O)c1c(C)c2cnc(Nc3ccc(N4CCNCC4)cn3)nc2n(C2CCCC2)c1=O [Palbociclib] (partner 0.5 µM)
Outline: (§1)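 Lung cancer cell lines, seeded in 1536-well plates, were treated the following day by pin tool with a single drug or with five library-drug doses (not always all listed) in √10 steps on top of a fixed anchor-drug dose. Cells were fixed and nuclei stained in one step after 5 days, and nuclei were counted. Relative viability is the nuclei count for treated wells divided by that for vehicle wells, reported as medians of duplicate plates.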

[2] = compound: C1=CC=C(C(=C1)C2=CC=C(C=C2)C3=CSC4=C3C(=C(C(=O)N4)C#N)O)O + O=C(c1cc(Cc2n[nH]c(=O)c3ccccc23)ccc1F)N1CCN(C(=O)C2CC2)CC1 [Olaparib] (partner 8 µM)
Outline: as §1

[3] = compound: O=C(CCCCCCNC(=O)c1cnc(N(c2ccccc2)c2ccccc2)nc1)NO [Ricolinostat] + CC1(C)CCC(c2ccc(Cl)cc2)=C(CN2CCN(c3ccc(C(=O)NS(=O)(=O)c4ccc(N[C@H](CCN5CCOCC5)CSc5ccccc5)c(S(=O)(=O)C(F)(F)F)c4)cc3)CC2)C1 [Navitoclax] (partner 0.5 µM)
Outline: as §1

Ricolinostat + AZD7762 = compound: O=C(CCCCCCNC(=O)c1cnc(N(c2ccccc2)c2ccccc2)nc1)NO [Ricolinostat] + NC(=O)Nc1cc(-c2cccc(F)c2)sc1C(=O)N[C@H]1CCCNC1 [AZD7762] (partner 0.2 µM)
Outline: as §1

| Cell Line | relative viability ([1]; first compound 0.08 µM) | relative viability ([1]; first compound 0.253 µM) | relative viability ([1]; first compound 0.8 µM) | relative viability ([1]; first compound 2.53 µM) | relative viability ([1]; first compound 8 µM) | relative viability ([2]; first compound 0.08 µM) | relative viability ([2]; first compound 0.253 µM) | relative viability ([2]; first compound 0.8 µM) | relative viability ([2]; first compound 2.53 µM) | relative viability ([2]; first compound 8 µM) | relative viability ([3]; first compound 0.08 µM) | relative viability ([3]; first compound 0.253 µM) | relative viability ([3]; first compound 0.8 µM) | relative viability ([3]; first compound 2.53 µM) | relative viability (Ricolinostat + AZD7762; first compound 0.08 µM) | relative viability (Ricolinostat + AZD7762; first compound 0.253 µM) | relative viability (Ricolinostat + AZD7762; first compound 0.8 µM) | relative viability (Ricolinostat + AZD7762; first compound 2.53 µM) |
| --- | --- | --- | --- | --- | --- | --- | --- | --- | --- | --- | --- | --- | --- | --- | --- | --- | --- | --- |
| CAL-12T | 0.429 | 0.62 | 0.455 | 0.405 | 0.437 | 0.724 | 0.834 | 0.824 | 0.856 | 0.651 | 1.04 | 1.01 | 1.01 | 1.11 | 0.496 | 0.602 | 0.56 | 0.489 |
| RERF-LC-KJ | 1.01 | 1.18 | 1.11 | 1.29 | 1.04 | 0.956 | 1.03 | 0.963 | 1.02 | 0.8 | 0.831 | 0.993 | 0.841 | 0.787 | 0.864 | 0.916 | 0.832 | 0.894 |
| HCC-44 | 1.08 | 1.05 | 0.995 | 0.979 | 0.964 | 0.979 | 1.14 | 1.01 | 1.01 | 0.887 | 0.861 | 1.04 | 0.985 | 0.93 | 1.05 | 0.972 | 0.993 | 1.05 |
| NCI-H1395 |  | 0.706 | 0.593 | 0.611 | 0.657 |  | 0.469 | 0.479 | 0.458 | 0.446 |  | 1.13 | 1.32 | 1.27 |  | 0.362 | 0.395 | 0.37 |
| LXF-289 | 0.612 | 0.595 | 0.681 | 0.629 | 0.675 | 1.1 | 1.24 | 0.958 | 1.01 | 1.02 | 0.904 | 0.927 | 0.914 | 0.878 | 1.07 | 1.07 | 1.11 | 1.06 |
| PC-14 | 0.496 | 0.56 | 0.537 | 0.574 | 0.34 | 0.352 | 0.261 | 0.252 | 0.255 | 0.28 | 0.968 | 0.947 | 1.05 | 0.962 | 0.26 | 0.321 | 0.306 | 0.26 |
| EKVX | 0.312 | 0.365 | 0.512 | 0.793 | 0.334 | 0.98 | 0.929 | 0.778 | 0.856 | 0.716 |  | 0.805 | 0.842 | 1.02 | 0.673 | 0.732 | 0.654 | 0.487 |
| NCI-H322M | 0.461 | 0.468 | 0.467 | 0.483 | 0.49 | 0.69 | 0.742 | 0.863 | 0.519 | 0.748 |  | 1.2 | 1.27 | 1.08 | 0.432 | 0.663 | 0.512 | 0.49 |
| LC-2-ad | 0.416 | 0.406 | 0.461 | 0.499 | 0.441 | 0.702 | 0.899 | 0.701 | 0.744 | 0.76 | 0.535 | 0.485 | 0.506 | 0.334 | 0.842 | 0.883 | 0.82 | 0.745 |
